Results published in patent US5260479A, “Inhibitors of farnesyl protein transferase” (Merck & Co., Inc., priority 1991, dated 1993).

Molecular target: T1, Farnesyl-protein transferase (FTase) (Bos taurus, UniProt P29702+P49355)
T1 construct: Farnesyl-protein transferase (FTase) from bovine brain was chromatographed; from tissue; host or cells: bovine brain
Assay: In Vitro Inhibition of Ras Farnesyl Transferase (inhibition of Ras-CVLS farnesylation)
Format: biochemical
Details: partially purified bovine brain FTase; Ras-CVLS 3.5 μM, 0.25 μM [3H]FPP
Method: Farnesyl-protein transferase (FTase) from bovine brain was chromatographed on DEAE-Sephacel (Pharmacia, 0-0.8M NaCl gradient elution), N-octyl agarose (Sigma, 0-0.6M NaCl gradient elution), and a mono Q HPLC column (Pharmacia, 0-0.3M NaCl gradient). Ras-CVLS at 3.5 μM, 0.25 μM [^3 H]FPP, and the indicated compounds were incubated with this partially purified enzyme preparation. The FTase inhibitory data presented below is a measurement of the ability of the test compound to inhibit Ras farnesylation in vitro.

Compound	IC50 [µM]
C=C(C(=O)O)C(CCCCCCCCCCCCCC)C(=O)O (centres unmarked) [B]	1.7
CCCCCCCCCCCCCC/C(C(=O)O)=C(/C)C(=O)O [A]	7.7
